From US12458020B2, “Synergistic herbicidal mixtures and compositions comprising triclopyr and phosphate ester adjuvants” (SBM Développement SAS, priority 2019, dated 2025) come the findings set out here.

In assay [1] the test system is brush (e.g., poison ivy, poison oak, black berries, etc.). Nature of the assay: Field trial of residual control of brush, rated as bare ground (Example 3). Conditions: triclopyr alone at 0.275, 0.55 and 0.8% ai/v. Type of assay: in vivo. The procedure: The objective of the trial was to determine the effects of concentration and adjuvant on triclopyr and its residual control of brush. The trial was conducted in a recreational setting at a golf course. Plots were 1×1 meters and the treatments comprised BioAdvanced Brush Killer Plus® (8.8% triclopyr) mixed to 0.275% ai/v with various adjuvants treated at 0.1% ai/v (i.e., % weight of the active ingredient per volume) (Table 3), Controls included an untreated check group and triclopyr alone at three concentrations (0.275, 0.55, and 0.8% ai/v). All treatments and controls were repeated in triplicate (i.e., three plots per group). The plots were treated at the standard rate of 2 gal of mixed product per 1000 square feet. The plots were rated for the percent of brush (e.g., poison ivy, poison oak, black berries, etc.) in each plot. […] The observations were based upon the amount of clear area (without vegetation) in each plot.

Assay [2] relates to English ivy (Hedera helix). Nature of the assay: Field trial of triclopyr plus phosphate ester adjuvants on English ivy plots (Example 2). Type of assay: in vivo. The conditions noted are these: triclopyr by itself, 0.55% w/v; single application. The protocol:
The objective of the trial was to measure the effects of adjuvants in the same class of chemistry in the control of the evasive weed species English ivy (Hedera helix). The trial was conducted in a recreational setting at a golf course. Plots were 2×2 meters and the treatments consisted of triclopyr in the form of BioAdvanced Brush Killer Plus® 8.8% triclopyr mixed to a 0.55% w/v concentration for all the treatments, and various adjuvants treated at 0.5% ai/v (i.e., % w/v of the active ingredient) (Table 2). Controls included an untreated check group. All treatments and controls were repeated in triplicate (i.e., three plots per group). The plots were treated at the standard rate of 2 gal of mixed product per 1000 square feet. The plots were rated for the percent English Ivy in each plot. […] Trial was observed over time for the presence of English ivy in each plot.

Molecules are shown by their SMILES.

In the case of `O=C(O)COc1nc(Cl)c(Cl)cc1Cl` [triclopyr, 3,5,6-Trichloro-2-pyridinyloxyacetic acid], the “residual efficacy on brush as a function of triclopyr concentration” value in assay [1] was “the higher the concentration of the triclopyr the longer the residual efficacy”. Moreover, in assay [2], the “control of the English ivy” value was “about 53%”.
